ChEMBL document CHEMBL1147388, “Three new cytotoxic metabolites from the marine sponge Plakortis halichondrioides” (J Nat Prod, 1993)
Values after ≈ are worked out from the molar mass of the structure shown.

What follows are compounds tested on P388 (assay: Cytotoxicity against mouse P388 cells).
Format: functional, cell-based

SMILES | IC50
CC/C=C/C(CC)C/C(=C/C(O)(CC)CC(O)(/C=C/C(=O)O)CC)CC (centres undefined) | 10 µg/mL (≈ 27.3 µM)
CC/C=C/C(CC)CCCC1(CC)C[C@H](CC)[C@H](CC(=O)O)OO1 (relative stereo) | 0.5 µg/mL (≈ 1.47 µM)
CC/C=C/C(CC)CCCC1(CC)C[C@H](CC)[C@H](CC(=O)OC)OO1 (relative stereo) | 5 µg/mL (≈ 14.1 µM)
CC/C=C/C(CC)C/C(C)=C/C(O)(CC)CC(O)(/C=C/C(=O)O)CC (centres undefined) | 10 µg/mL (≈ 28.4 µM)
